# In patent US20240287147A1, “PD-L1 BINDING PEPTIDES AND PEPTIDE COMPLEXES AND METHODS OF USE THEREOF” (Fred Hutchinson Cancer Center, priority 2020, published 2024):
# System: PC3 tumors
# Conditions: PC3, second cohort, T cells + 1 nmol or 0.1 nmol
substance,measurement,value
durvalumab,effect on PC3 flank tumors,no effect
